Data taken from patent publication US12527794B2, “Compositions, formulations, and methods for hair treatment” (Oddity Labs, LLC, priority 2021, dated 2026).

Legend:
HepG2 cells = assay: Caspase 3/7 activity in HepG2 cells; assay type: cell-based; conditions: HepG2, >2-log concentration range
Experimental: (§1) Cells were treated with either the exemplary compounds or vehicle control containing correspondingly % v/v-matched amounts of DMSO spanning a >2-log concentration range. Data represents mean±s.d. and representative of at least 2 experimental replicates.
as §1, with “HepG2 cells are an immortalized liver cell line commonly used to study apoptosis induced by small molecules. Cells” for “Cells”

[1] = system: human hair follicle dermal papilla cells (hFDPC); assay: Human follicle dermal papilla cell (hFDPC) proliferation, cell viability assay; assay type: cell-based; conditions: hFDPCs supplemented with BIO, BMP-2 and FGFβ
Experimental: The ability of a compound or salt of the present disclosure to increase proliferation of human hair follicle dermal papilla cells (hFDPC) was tested using a cell viability assay, such as the Promega CellTiter-Glo® Luminescent Cell Viability Assay, MTT cell proliferation assay (ATCC® 30-1010K) or cell counting. […] In Table 8, A represents less than 20% of increased proliferation of hFDPCs, B represents 20-40%, and C represents larger than 40% of increased proliferation of hFDPCs. For this assay, hFDPCs were cultured on tissue culture-treated plastic and supplemented with 6-bromoindirubin-39-Oxime (BIO), recombinant bone morphogenetic protein-2 (BMP-2), and basic fibroblast growth factor (FGFβ), whose combination was previously found to preserve in situ dermal papilla gene signatures.

TK.6 lymphoblasts = assay: TK.6 micronucleus assay; assay type: cell-based
Experimental: (§2) The safety/toxicology profiles of a compound or salt of the present disclosure was evaluated via a series of in vitro genotoxicity assays, including the SOS-chromotest to determine bacterial genotoxicity, and the TK.6 micronucleus assay to determine chromosomal damage and forward mutations. Standard reactive oxygen species (ROS) and caspase 3/7 assay were conducted to determine general cellular toxicity. Moreover, a series of sensitization tests were conducted to predict any potential skin sensitivity. These include the direct peptide reactivity assay to evaluate haptenization, the KeratinoSens reporter assay to determine potential sensitivity via the activation of a cytoprotective pathway, and an immunological assay using human immature monocyte-derived dendritic cells to evaluate any potential immunogenicity.
TK.6 lymphoblasts are a well-studied cell line commonly used for gene mutation analyses. They are heterozygous for the thymidine kinase gene (TK) and enable the detection of forward mutations and chromosomal damage, which manifests as micronuclei and are detectable via flow cytometry.
TK.6 cells were dosed with the exemplary compounds or a vehicle control (0.1% v/v DMSO) and cultured with or without S9 metabolic activation for 24 hr. […] Methyl methanesulfonate, a known genotoxic, alkylating agent was used as a positive control for micronuclei detection.
The micronucleus assay was also performed to determine if the compounds are genotoxic by evaluating the presence of micronuclei. […] I-17 elicited genotoxicity at >3.125 μg/mL.

[2] = system: follicle dermal papilla cells; assay: Reactive oxygen species (ROS) activity in follicle dermal papilla cells; assay type: cell-based; conditions: 5 μg/mL, 24 hr, relative to vehicle control 0.1% v/v DMSO
Experimental: Normalized reactive oxygen species (ROS) activity in follicle dermal papilla cells were analyzed after treatment with 5 μg/mL exemplary compounds relative to vehicle control (0.1% v/v DMSO) after 24 hr. The increase in ROS levels is harmful on cell mhemeostasis, structures, and functions and results in oxidative stress.

bacteria = assay: SOS chromotest (β-galactosidase activity); assay type: cell-based; conditions: varying concentrations; 4-NQ as known genotoxin
Experimental: The SOS chromotest is a well-established bacteria-based test for genotoxicity.
as §2

Nrf2-ARE pathway = assay: KeratinoSens Nrf2-ARE luciferase reporter assay; assay type: cell-based; conditions: cinnamic aldehyde as known sensitizing compound
Experimental: The Nrf2-ARE pathway is a master regulator of cytoprotective responses to oxidative stress, and is an early indicator of skin sensitization. Nrf2 (nuclear factor erythroid 2-related factor) is a transcription factor that binds to antioxidant responsive elements (ARE). By fusing ARE to the light-producing luciferase gene, a KeratinoSens Nrf2-ARE reporter assay was performed whereby luciferase signal is directly correlated to Nrf2-ARE pathway activation.
Normalized ARE-luciferase activity was measured using a known sensitizing compound (cinnamic aldehyde) and exemplary compounds.

[3] = system: Human follicle papilla cells; assay: Functional stability across pH and temperature (follicle papilla cell proliferation); assay type: cell-based; conditions: pre-treated 7 days in pH-adjusted water at varying temperatures; cells dosed 5 μg/mL, 48 hr
Experimental: FIGS. 7A and 7B show normalized proliferation follicle papilla cell proliferation after 48 hr following treatment with the exemplary compound (VII-3) pre-treated across a range of pH conditions (FIG. 7A) and temperature conditions (FIG. 7B). Data represents mean±s.d. and representative of n=2 donors.
An exemplary compound (VII-3) was prepared in various solvents (DMSO; dimethyl sulfoxide, DMI; dimethyl isosorbide, or a 1:1 mixture of dimethyl isosorbide and ethanol), the diluted in pH-adjusted water and left at varying temperatures for 7 days. Human follicle papilla cells were dosed at 5 μg/mL with the exemplary compound and further supplemented with 6-bromoindirubin-39-Oxime (BIO), recombinant bone morphogenetic protein-2 (BMP-2), and basic fibroblast growth factor (FGFβ), whose combination was previously found to preserve in vivo dermal papilla gene signatures. Normalized proliferation follicle papilla cell proliferation was analyzed after 48 hr following the treatment with the exemplary compound pre-treated across a range of pH conditions (FIG. 7A) and temperature conditions (FIG. 7B). Data represents mean±s.d. and representative of n=2 donors.

female subjects = assay: Clinical consumer perception study; assay type: in vivo, human; conditions: 0.02% v/v water-based formula every 2 days, 6 weeks, 32 subjects completed
Experimental: Photographs were taken after 6 weeks. Subjects were female and ranged in age from 27-65 years. Subjects used a simple, water-based formula containing an exemplary compound (at 0.02% v/v) every 2 days in the morning or night on dry or towel-dried hair. Approximately 2 mL was applied directly to the hairline. No randomization was required for the study and subjects were blinded to the name of the test material.
The clinical test was performed by Eurofins|CRL, Inc. The test followed established, standardized procedures for clinical testing designed to ensure the well-being of clinical study subjects and the generation of reliable study data. Subjects were female and ranged in age from 27-65 years. Subjects used a simple, water-based formula containing a exemplary compound, VII-3 (at 0.02% v/v) every 2 days in the morning or night on dry or towel-dried hair. Approximately 2 mL was applied directly to the hairline. No randomization was required for the study and subjects were blinded to the name of the test material.
Photographs of subjects' hair were taken 6 weeks after the treatment with the representative compounds (FIG. 6). Subjects were female and ranged in age from 27-65 years. Subjects used a simple, water-based formula containing an exemplary compound VII-3 (at 0.02% v/v) every 2 days in the morning or night on dry or towel-dried hair. […]

SMILES | normalized caspase 3/7 activity (HepG2 cells) | Percent Increase Proliferation of hFDPCs (%) [1] | genotoxic effects, normalized β-galactosidase activity (bacteria) | micronuclei formation / genotoxic effect in TK.6 cells (TK.6 lymphoblasts) | other results
C=CCc1cc(/C=C2\C(=O)NC(=S)N(c3ccc(OC)cc3)C2=O)cc(OC)c1O [Compound I-17, 4,6(1H,5H)-Pyrimidinedione, dihydro-5-[[4-hydroxy-3-methoxy-5-(2-propen-1-yl)phenyl]methylene]-1-(4-methoxyphenyl)-2-thioxo-] | significant caspase-3/7 activation at the highest concentration | C (C represents larger than 40% of increased proliferation of hFDPCs) | – | – | concentration eliciting genotoxicity in TK.6 micronuclei assay (TK.6 lymphoblasts; 24 hr): > 3.125 µg/mL
C=CCc1cc(/C=C2\C(=O)NC(=S)N(c3ccccc3OC)C2=O)cc(OCC)c1O [Compound I-18, 4,6(1H,5H)-Pyrimidinedione, 5-[[3-ethoxy-4-hydroxy-5-(2-propen-1-yl)phenyl]methylene]dihydro-1-(2-methoxyphenyl)-2-thioxo-] | – | B (B represents 20-40%) | – | – | normalized ROS level [2]: higher than other compounds
CCC(=O)N1CCN(c2nnc(-c3ccc(C)cc3)c3ccccc23)CC1 [II-4, 1-Propanone, 1-[4-[4-(4-methylphenyl)-1-phthalazinyl]-1-piperazinyl]-] | did not exhibit any caspase activation | – | did not exhibit any genotoxic effects | do not promote any micronuclei formation | –
COC(=O)c1c(S(C)(=O)=O)[nH]c(-c2ccccc2)nc1=O [VII-1] | did not exhibit any caspase activation | – | did not exhibit any genotoxic effects | do not promote any micronuclei formation | sensitizing potential, normalized ARE-luciferase activity (Nrf2-ARE pathway): exhibited sensitizing potential
CSc1nc(-c2ccco2)nn1S(C)(=O)=O [VII-3, 1H-1,2,4-Triazole, 3-(2-furanyl)-1-(methylsulfonyl)-5-(methylthio)-] | did not exhibit any caspase activation | – | did not exhibit any genotoxic effects | – | functional stability (normalized follicle papilla cell proliferation after pre-treatment) [3]: functionally stable across physiologically-relevant pH and temperature ranges; Adverse effects (female subjects): 0/32 (0%)
COc1ccc(CCCc2nc3ccccc3[nH]2)cc1 [VII-14, 1H-Benzimidazole, 2-[3-(4-methoxyphenyl)propyl]-] | did not exhibit any caspase activation | – | – | do not promote any micronuclei formation | –
COc1ccc(CC(=O)Nc2sc3c(c2C(=O)Nc2cccc([N+](=O)[O-])c2)CCC(C)C3)cc1 (stereo not shown) [VII-22, Benzo[b]thiophene-3-carboxamide, 4,5,6,7-tetrahydro-2-[[2-(4-methoxyphenyl)acetyl]amino]-6-methyl-N-(3-nitrophenyl)-] | – | A (A represents less than 20% of increased proliferation of hFDPCs) | – | – | –
